Reference: ChEMBL document CHEMBL2401692, “Synthesis, structure-activity relationships, and in vivo efficacy of the novel potent and selective anaplastic lymphoma kinase (ALK) inhibitor 5-chloro-N2-(2-isopropoxy-5-methyl-4-(piperidin-4-yl)phenyl)-N4-(2-(isopropylsulfonyl)phenyl)pyrimidine-2,4-diamine (LDK378) currently in phase 1 and phase …” (J Med Chem, 2013)
≈ marks a conversion by molar mass, not a printed value.

Tests used:
[1] = target: BDNF/NT-3 growth factors receptor (Homo sapiens, UniProt Q16620); test: Inhibition of TEL-fused TRKB (unknown origin) by cell-based assay
[2] = Volume of distribution at steady state in cynomolgus monkey at 5 mg/kg, iv; format: ADME, organism-based, Macaca fascicularis; set-up: dose 5 mg/kg, route intravenous; details: in vivo, read-out: Vdss
[3] = Solubility of the compound […] at pH 6.8; format: physicochemical
[4] = target: Rho-associated protein kinase 2 (Homo sapiens, UniProt O75116); test: Inhibition of ROCK2 (unknown origin) after 60 mins
Sequence of Rho-associated protein kinase 2 (O75116 whole entry): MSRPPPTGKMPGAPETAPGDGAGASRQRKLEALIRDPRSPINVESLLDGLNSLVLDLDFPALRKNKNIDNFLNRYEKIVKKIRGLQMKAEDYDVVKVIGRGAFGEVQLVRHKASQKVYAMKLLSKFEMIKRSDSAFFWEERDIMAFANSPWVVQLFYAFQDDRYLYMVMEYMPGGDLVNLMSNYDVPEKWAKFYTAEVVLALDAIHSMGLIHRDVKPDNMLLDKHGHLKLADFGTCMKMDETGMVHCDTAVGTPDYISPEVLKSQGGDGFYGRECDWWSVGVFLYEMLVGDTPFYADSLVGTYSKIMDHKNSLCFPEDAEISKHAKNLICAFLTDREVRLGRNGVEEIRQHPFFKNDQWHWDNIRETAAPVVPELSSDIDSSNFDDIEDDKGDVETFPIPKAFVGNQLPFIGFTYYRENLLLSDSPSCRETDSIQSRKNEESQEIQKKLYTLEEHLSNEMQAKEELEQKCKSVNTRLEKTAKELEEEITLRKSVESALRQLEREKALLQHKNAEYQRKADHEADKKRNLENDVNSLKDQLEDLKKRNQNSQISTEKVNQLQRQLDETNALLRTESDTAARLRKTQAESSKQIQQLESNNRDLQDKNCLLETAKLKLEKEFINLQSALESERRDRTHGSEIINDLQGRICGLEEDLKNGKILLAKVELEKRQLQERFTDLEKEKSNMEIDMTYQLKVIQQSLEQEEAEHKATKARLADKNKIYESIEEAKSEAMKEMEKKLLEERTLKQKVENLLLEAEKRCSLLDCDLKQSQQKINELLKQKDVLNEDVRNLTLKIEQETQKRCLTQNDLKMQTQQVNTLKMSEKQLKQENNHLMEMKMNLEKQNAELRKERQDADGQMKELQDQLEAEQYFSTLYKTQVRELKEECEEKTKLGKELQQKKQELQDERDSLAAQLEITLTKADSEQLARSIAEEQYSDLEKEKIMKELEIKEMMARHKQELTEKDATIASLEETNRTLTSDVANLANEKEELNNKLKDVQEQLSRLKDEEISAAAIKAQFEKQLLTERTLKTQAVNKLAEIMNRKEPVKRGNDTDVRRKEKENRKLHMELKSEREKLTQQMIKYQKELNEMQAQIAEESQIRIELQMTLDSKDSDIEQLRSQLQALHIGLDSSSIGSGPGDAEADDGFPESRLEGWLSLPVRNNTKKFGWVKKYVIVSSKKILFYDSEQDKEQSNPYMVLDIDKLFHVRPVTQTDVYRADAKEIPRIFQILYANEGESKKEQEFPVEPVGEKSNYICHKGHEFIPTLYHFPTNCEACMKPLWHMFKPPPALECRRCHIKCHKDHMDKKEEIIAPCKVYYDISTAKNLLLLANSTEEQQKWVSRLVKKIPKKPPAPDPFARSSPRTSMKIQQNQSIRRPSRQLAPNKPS

[5] = target: T1, Tyrosine-protein kinase Lyn (Homo sapiens, UniProt P07948); test: Inhibition of LYN (unknown origin) after 60 mins
T1 sequence (P07948 whole entry): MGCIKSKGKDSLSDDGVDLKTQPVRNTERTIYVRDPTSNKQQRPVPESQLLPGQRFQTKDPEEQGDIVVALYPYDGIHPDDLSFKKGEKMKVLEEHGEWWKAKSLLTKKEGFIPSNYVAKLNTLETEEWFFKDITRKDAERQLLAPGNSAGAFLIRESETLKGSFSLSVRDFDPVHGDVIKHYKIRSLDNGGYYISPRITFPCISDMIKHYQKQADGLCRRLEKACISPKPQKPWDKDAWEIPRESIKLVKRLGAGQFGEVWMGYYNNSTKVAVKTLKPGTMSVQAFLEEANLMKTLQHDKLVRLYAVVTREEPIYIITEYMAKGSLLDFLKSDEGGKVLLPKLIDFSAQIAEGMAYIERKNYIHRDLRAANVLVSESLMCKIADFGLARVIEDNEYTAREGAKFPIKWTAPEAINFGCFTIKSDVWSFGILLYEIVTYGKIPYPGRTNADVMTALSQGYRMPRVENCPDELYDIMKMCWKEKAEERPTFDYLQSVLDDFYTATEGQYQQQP

[6] = target: Tyrosine-protein kinase JAK1 (Homo sapiens, UniProt P23458); test: Inhibition of JAK1 (unknown origin) after 60 mins
[7] = target: Testis-specific serine/threonine-protein kinase 1 (Homo sapiens, UniProt Q9BXA7); test: Inhibition of STK22D (unknown origin) after 60 mins
Sequence of Testis-specific serine/threonine-protein kinase 1 (Q9BXA7 whole entry): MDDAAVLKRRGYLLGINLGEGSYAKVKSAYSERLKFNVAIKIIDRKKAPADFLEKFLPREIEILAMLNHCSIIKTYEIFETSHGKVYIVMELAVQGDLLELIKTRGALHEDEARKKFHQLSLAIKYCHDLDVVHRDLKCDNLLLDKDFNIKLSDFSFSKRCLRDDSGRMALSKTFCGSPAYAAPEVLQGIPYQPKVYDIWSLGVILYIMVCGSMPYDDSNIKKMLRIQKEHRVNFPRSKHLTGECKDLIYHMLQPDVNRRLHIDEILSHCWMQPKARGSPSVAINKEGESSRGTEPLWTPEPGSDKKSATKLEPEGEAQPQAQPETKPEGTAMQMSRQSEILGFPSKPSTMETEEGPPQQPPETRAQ

KARPAS-299 = test: Antitumor activity against human KARPAS299 cells xenografted in Rowett nude rat assessed as tumor growth inhibition factor at 6.25 mg/kg, po for 14 days measured 7 to 72 hrs post dosing relative to control; format: functional
[8] = target: Tyrosine-protein kinase JAK3 (Homo sapiens, UniProt P52333); test: Inhibition of JAK3 (unknown origin) after 60 mins
Sequence of Tyrosine-protein kinase JAK3 (P52333 whole entry): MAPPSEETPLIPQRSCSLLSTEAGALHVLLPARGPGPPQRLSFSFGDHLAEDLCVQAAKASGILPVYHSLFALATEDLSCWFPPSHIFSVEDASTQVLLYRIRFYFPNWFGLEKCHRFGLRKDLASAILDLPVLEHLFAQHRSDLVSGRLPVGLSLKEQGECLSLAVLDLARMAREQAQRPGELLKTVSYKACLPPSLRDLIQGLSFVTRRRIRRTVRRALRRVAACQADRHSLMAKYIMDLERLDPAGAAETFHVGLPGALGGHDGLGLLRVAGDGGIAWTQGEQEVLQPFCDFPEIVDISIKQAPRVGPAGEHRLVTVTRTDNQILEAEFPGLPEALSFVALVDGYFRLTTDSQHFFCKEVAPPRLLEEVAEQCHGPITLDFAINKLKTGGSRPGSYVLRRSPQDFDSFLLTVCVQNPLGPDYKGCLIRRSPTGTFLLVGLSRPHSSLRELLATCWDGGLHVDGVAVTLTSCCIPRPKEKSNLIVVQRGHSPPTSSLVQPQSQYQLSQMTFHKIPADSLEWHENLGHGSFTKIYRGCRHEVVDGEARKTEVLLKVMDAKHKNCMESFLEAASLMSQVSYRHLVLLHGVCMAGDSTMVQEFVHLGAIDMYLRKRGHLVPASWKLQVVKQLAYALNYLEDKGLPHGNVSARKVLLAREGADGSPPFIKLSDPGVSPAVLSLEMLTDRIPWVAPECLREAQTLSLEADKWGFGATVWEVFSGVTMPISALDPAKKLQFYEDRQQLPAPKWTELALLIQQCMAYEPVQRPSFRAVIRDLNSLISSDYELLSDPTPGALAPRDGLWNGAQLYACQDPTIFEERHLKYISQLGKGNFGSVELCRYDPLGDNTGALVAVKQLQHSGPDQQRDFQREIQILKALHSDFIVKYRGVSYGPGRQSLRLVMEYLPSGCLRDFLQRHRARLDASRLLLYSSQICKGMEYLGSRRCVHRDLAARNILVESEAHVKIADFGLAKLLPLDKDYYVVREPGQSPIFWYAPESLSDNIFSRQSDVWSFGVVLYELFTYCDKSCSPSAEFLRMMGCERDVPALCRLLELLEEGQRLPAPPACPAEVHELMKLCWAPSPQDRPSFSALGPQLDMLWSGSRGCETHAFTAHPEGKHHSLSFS

in vivo = details: Sprague-Dawley, rat, iv, 3 mg/kg
[9] = Oral bioavailability in Sprague-Dawley rat at 10 mg/kg; format: ADME, organism-based; details: in vivo
[10] = Cmax in Beagle dog at 20 mg/kg, po; format: ADME, organism-based, Canis lupus familiaris; set-up: dose 20 mg/kg, route oral; details: in vivo
[11] = AUC in Beagle dog at 20 mg/kg, po; format: ADME, organism-based, Canis lupus familiaris; set-up: dose 20 mg/kg, route oral; details: plasma
[12] = Oral bioavailability in BALB/c mouse at 20 mg/kg; format: ADME, organism-based; details: in vivo
[13] = Volume of distribution at steady state in BALB/c mouse at 5 mg/kg, iv; format: ADME, organism-based; set-up: dose 5 mg/kg, route intravenous; details: in vivo, read-out: Vdss
[14] = target: Tyrosine-protein kinase JAK2 (Homo sapiens, UniProt O60674); test: Inhibition of JAK2 (unknown origin) after 60 mins
[15] = AUC in Beagle dog at 5 mg/kg, iv; format: ADME, organism-based, Canis lupus familiaris; set-up: dose 5 mg/kg, route intravenous; details: plasma
[16] = target: T2, Mast/stem cell growth factor receptor Kit (Homo sapiens, UniProt P10721); test: Inhibition of TEL-fused cKIT (unknown origin) by cell-based assay
T2 sequence (P10721 whole entry, the tested form may be a part): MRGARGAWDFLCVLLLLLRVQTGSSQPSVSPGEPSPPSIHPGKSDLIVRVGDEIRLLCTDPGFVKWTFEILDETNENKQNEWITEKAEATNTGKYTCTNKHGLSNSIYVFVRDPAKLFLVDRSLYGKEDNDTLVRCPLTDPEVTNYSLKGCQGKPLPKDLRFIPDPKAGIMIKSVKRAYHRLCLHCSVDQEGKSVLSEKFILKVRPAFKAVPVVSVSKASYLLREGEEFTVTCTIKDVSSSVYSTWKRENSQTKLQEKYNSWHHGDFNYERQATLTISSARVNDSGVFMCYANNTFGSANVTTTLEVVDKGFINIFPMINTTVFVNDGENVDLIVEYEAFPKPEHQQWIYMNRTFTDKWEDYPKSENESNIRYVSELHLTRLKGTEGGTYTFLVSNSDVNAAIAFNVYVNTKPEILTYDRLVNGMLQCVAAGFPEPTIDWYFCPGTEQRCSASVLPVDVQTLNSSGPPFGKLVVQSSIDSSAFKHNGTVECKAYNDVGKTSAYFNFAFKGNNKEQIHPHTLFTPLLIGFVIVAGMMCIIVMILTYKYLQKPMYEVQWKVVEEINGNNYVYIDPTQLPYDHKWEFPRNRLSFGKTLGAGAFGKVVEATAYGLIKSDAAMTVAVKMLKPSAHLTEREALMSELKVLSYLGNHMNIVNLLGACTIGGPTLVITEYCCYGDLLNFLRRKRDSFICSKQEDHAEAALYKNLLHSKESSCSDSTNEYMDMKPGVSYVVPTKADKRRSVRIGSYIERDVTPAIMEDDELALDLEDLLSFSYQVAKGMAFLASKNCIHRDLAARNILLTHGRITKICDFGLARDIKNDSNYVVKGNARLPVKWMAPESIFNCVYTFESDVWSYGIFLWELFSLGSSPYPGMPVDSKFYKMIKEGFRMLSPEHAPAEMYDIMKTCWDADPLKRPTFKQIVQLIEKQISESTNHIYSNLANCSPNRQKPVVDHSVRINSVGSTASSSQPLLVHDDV

[17] = AUC in cynomolgus monkey at 5 mg/kg, iv; format: ADME, organism-based, Macaca fascicularis; set-up: dose 5 mg/kg, route intravenous; details: plasma
[18] = target: Proto-oncogene tyrosine-protein kinase Src (Homo sapiens, UniProt P12931); test: Inhibition of TEL-fused SRC (unknown origin) by cell-based assay
[19] = target: T1, Tyrosine-protein kinase Lyn; test: Inhibition of TEL-fused LYN (unknown origin) by cell-based assay
[20] = Tmax in Beagle dog at 20 mg/kg, po; format: ADME, organism-based, Canis lupus familiaris; set-up: dose 20 mg/kg, route oral; details: in vivo
[21] = Cmax in BALB/c mouse at 5 mg/kg, iv; format: ADME, organism-based; set-up: dose 5 mg/kg, route intravenous; details: in vivo
[22] = target: Receptor-type tyrosine-protein kinase FLT3 (Homo sapiens, UniProt P36888); test: Inhibition of TEL-fused FLT3 (unknown origin) by cell-based assay
[23] = target: Fibroblast growth factor receptor 2 (Homo sapiens, UniProt P21802); test: Inhibition of FGFR2 (unknown origin) after 60 mins
[24] = AUC in BALB/c mouse at 20 mg/kg, po; format: ADME, organism-based; set-up: dose 20 mg/kg, route oral; details: plasma
[25] = Half life in Beagle dog at 5 mg/kg, iv; format: ADME, organism-based, Canis lupus familiaris; set-up: dose 5 mg/kg, route intravenous; details: in vivo
[26] = target: Receptor-type tyrosine-protein kinase FLT3 (Homo sapiens, UniProt P36888); test: Inhibition of FLT3 (unknown origin) after 60 mins
[27] = Tmax in Sprague-Dawley rat at 10 mg/kg, po; format: ADME, organism-based; set-up: dose 10 mg/kg, route oral; details: in vivo
NCI-H2228 [28] = test: Antitumor activity against human NCI-H2228 cells xenografted in Rowett nude rat assessed as tumor growth inhibition factor at 10 mg/kg, po for 14 days measured 7 to 72 hrs post dosing relative to control; format: functional
[29] = target: Tyrosine-protein kinase BTK (Homo sapiens, UniProt Q06187); test: Inhibition of BTK (unknown origin) after 60 mins
Sequence of Tyrosine-protein kinase BTK (Q06187 whole entry): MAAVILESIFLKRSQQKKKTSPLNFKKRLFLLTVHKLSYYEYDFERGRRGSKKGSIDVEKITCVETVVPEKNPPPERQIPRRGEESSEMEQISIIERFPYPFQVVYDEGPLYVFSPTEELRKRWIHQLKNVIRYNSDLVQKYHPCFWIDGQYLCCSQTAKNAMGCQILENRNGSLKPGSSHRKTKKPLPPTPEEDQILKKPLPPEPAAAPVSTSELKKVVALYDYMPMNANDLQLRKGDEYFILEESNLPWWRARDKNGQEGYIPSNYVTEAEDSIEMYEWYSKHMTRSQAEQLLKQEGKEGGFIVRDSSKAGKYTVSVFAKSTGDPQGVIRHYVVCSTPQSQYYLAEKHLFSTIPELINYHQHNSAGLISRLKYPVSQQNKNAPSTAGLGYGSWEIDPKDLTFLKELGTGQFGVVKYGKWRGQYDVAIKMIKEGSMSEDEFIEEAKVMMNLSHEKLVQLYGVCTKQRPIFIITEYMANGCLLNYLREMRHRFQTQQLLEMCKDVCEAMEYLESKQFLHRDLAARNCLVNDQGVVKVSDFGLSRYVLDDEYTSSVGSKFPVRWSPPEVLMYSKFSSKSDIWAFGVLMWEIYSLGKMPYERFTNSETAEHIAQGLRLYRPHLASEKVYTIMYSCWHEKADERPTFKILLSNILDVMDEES

NCI-H2228 [30] = details: Homo sapiens
Description: Antitumor activity against human NCI-H2228 cells xenografted in po dosed Rowett nude rat assessed as tumor growth inhibition administered for 14 days measured 7 to 72 hrs post dosing

[31] = Inhibition of Aurora kinase (unknown origin) after 60 mins; set-up: species or system Homo sapiens
[32] = Tmax in Sprague-Dawley rat at 3 mg/kg, iv; format: ADME, organism-based; set-up: dose 3 mg/kg, route intravenous; details: in vivo
[33] = Intrinsic clearance in mouse liver microsomes; format: ADME, Microsome; details: read-out: CLH
[34] = target: Tyrosine-protein kinase Lck (Homo sapiens, UniProt P06239); test: Inhibition of TEL-fused LCK (unknown origin) by cell-based assay
[35] = Plasma clearance in Sprague-Dawley rat at 3 mg/kg, iv; format: ADME, organism-based; set-up: dose 3 mg/kg, route intravenous
[36] = Oral bioavailability in Beagle dog at 20 mg/kg; format: ADME, organism-based, Canis lupus familiaris; details: in vivo
Canis familiaris = species: Canis familiaris; test: Cardiotoxicity in dog assessed as QTc prolongation; format: toxicity, organism-based, Canis lupus familiaris; details: in vivo
[37] = Half life in cynomolgus monkey at 5 mg/kg, iv; format: ADME, organism-based, Macaca fascicularis; set-up: dose 5 mg/kg, route intravenous; details: in vivo
[38] = Plasma clearance in cynomolgus monkey at 5 mg/kg, iv; format: ADME, organism-based, Macaca fascicularis; set-up: dose 5 mg/kg, route intravenous
[39] = target: Tyrosine-protein kinase SYK (Homo sapiens, UniProt P43405); test: Inhibition of SYK (unknown origin) after 60 mins
[40] = Volume of distribution at steady state in Sprague-Dawley rat at 3 mg/kg, iv; format: ADME, organism-based; set-up: dose 3 mg/kg, route intravenous; details: in vivo, read-out: Vdss
[41] = Half life in BALB/c mouse at 5 mg/kg, iv; format: ADME, organism-based; set-up: dose 5 mg/kg, route intravenous; details: in vivo
[42] = target: T2, Mast/stem cell growth factor receptor Kit; test: Inhibition of cKIT (unknown origin) after 60 mins
[43] = target: Cyclin-dependent kinase 4 (Homo sapiens, UniProt P11802); test: Inhibition of CDK4 (unknown origin) after 60 mins

SMILES: Cc1cc(Nc2ncc(Cl)c(Nc3ccccc3S(=O)(=O)C(C)C)n2)c(OC(C)C)cc1C1CCNCC1 [CERITINIB]
- IC50 [1]: 1.83 µM
- Vd [2]: 15 L/kg
- solubility [3]: 24 µM (≈ 13.4 µg/mL)
- IC50 [4]: 1.27 µM
- IC50 [5]: 0.84 µM
- IC50 [6]: 3.73 µM
- IC50 [7]: 0.023 µM
- T/C (KARPAS-299): 74%
- IC50 [8]: 7.92 µM
- Cmax (in vivo): 770 nM
- bioavailability [9]: 66%
- Cmax [10]: 1900 nM
- AUC [11]: 67.9 µM·h
- bioavailability [12]: 55%
- Vd [13]: 9.7 L/kg
- IC50 [14]: 0.61 µM
- AUC [15]: 18.1 µM·h
- IC50 [16]: 2.86 µM
- AUC [17]: 11.3 µM·h
- IC50 [18]: 1.69 µM
- IC50 [19]: 2.31 µM
- Tmax [20]: 8 h
- Cmax [21]: 1760 nM
- IC50 [22]: 3.14 µM
- IC50 [23]: 0.26 µM
- AUC [24]: 12.3 µM·h
- half-life [25]: 21 h
- IC50 [26]: 0.06 µM
- Tmax [27]: 7 h
- T/C (NCI-H2228 [28]): 2%
- IC50 [29]: 3.36 µM
- TGI (NCI-H2228 [30]): Dose-dependent effect
- IC50 [31]: 0.66 µM
- Tmax [32]: 1.8 min
- microsomal CLint [33]: 15 µL/min/mg
- IC50 [34]: 0.672 µM
- clearance [35]: 36.8 mL/min/kg
- bioavailability [36]: 119%
- Activity (Canis familiaris): Non-toxic
- half-life [37]: 26 h
- clearance [38]: 12.8 mL/min/kg
- IC50 [39]: 3.05 µM
- Vd [40]: 21.2 L/kg
- half-life [41]: 6.2 h
- IC50 [42]: 1.28 µM
- IC50 [43]: 4.72 µM
